Laboratory results: patent US20070049564A1 (Wyeth, priority 2005, published 2007)
Values after ≈ are worked out from the molar mass of the structure shown. Like-named read-outs stand apart in the source and are kept apart here.

How the values were obtained:
[1] = test system: Staph. aureus Smith; assay: In vivo activity (oral, iv; ED50) against Staph. aureus Smith in mice
[2] = test system: Staph.; assay: Range of MIC for Staph. strains, including MRSA; conditions: Staphylococcus aureus, MRSA
[3] = test system: E. coli; assay: Range of MIC for E. coli strains; conditions: Escherichia coli
[4] = Staphylococcus aureus, in Mus musculus, po, read-out: ED50 Staph Smith SOD
[5] = iv, read-out: ED50 Staph Smith SIV
[6] = read-out: Minimum inhibitory concentration (MIC), Staph. (mouse serum)
[7] = read-out: Minimum inhibitory concentration (MIC), Staph. (water)
[8] = read-out: Range of MIC, Staph (Mouse Serum)
[9] = read-out: Range of MIC, Staph (Water)
[10] = 20 h, read-out: Range of MIC, E. coli (Mouse Serum)
[11] = read-out: Minimum inhibitory concentration (MIC), E. coli (mouse serum)
[12] = read-out: Minimum inhibitory concentration (MIC), E. coli (water)
[13] = read-out: Range of MIC, E. coli (Water)

Row | SMILES | MIC [2, 6] | MIC [2, 7] | MIC [2, 8] | MIC [2, 9] | MIC [3, 10] | MIC [3, 11] | MIC [3, 12] | MIC [3, 13] | MIC ([2]; read-out: Range of MIC, Staph. (mouse serum)) | MIC ([2]; read-out: Range of MIC, Staph. (water)) | MIC ([3]; read-out: Range of MIC, E. coli (mouse serum)) | ED50 [1, 4] | ED50 [1, 5]
1 | CCCCN(CC(=O)Nc1cc(N(C)C)c2c(c1O)C(=O)C1=C(O)[C@]3(O)C(=O)C(C(N)=O)=C(O)[C@@H](N(C)C)[C@@H]3C[C@@H]1C2)C(=O)OCOC(=O)C1CCC1 [Example 18, ({[(2-{[(5aR,6aS,7S,10aS)-9-(aminocarbonyl)-4,7-bis(dimethylamino)-1,8,10a,11-tetrahydroxy-10,12-dioxo-5,5a,6,6a,7,10,10a,12-octahydrotetracen-2-yl]amino}-2-oxoethyl)(butyl)amino]carbonyl}oxy)methyl cyclobutanecarboxylate] | 1 to 4 µg/mL (≈ 1.35 to 5.39 µM) | 1 to 4 µg/mL (≈ 1.35 to 5.39 µM) | 1 to 4 µg/mL (≈ 1.35 to 5.39 µM) | 1 to 4 µg/mL (≈ 1.35 to 5.39 µM) | 0.5 to 2 µg/mL (≈ 0.674 to 2.7 µM) | 0.5 to 2 µg/mL (≈ 0.674 to 2.7 µM) | 4 to 8 µg/mL (≈ 5.39 to 10.8 µM) | 4 to 8 µg/mL (≈ 5.39 to 10.8 µM) |  |  |  | 29 mg/kg | 0.6 mg/kg
2 | CCCCN(CC(=O)Nc1cc(N(C)C)c2c(c1O)C(=O)C1=C(O)[C@]3(O)C(=O)C(C(N)=O)=C(O)[C@@H](N(C)C)[C@@H]3C[C@@H]1C2)C(=O)OCOC(=O)c1ccc(C(C)(C)C)cc1 [Example 20, ({[(2-{[(5aR,6aS,7S,10aS)-9-(aminocarbonyl)-4,7-bis(dimethylamino)-1,8,10a,11-tetrahydroxy-10,12-dioxo-5,5a,6,6a,7,10,10a,12-octahydrotetracen-2-yl]amino}-2-oxoethyl)(butyl)amino]carbonyl}oxy)methyl 4-tert-butylbenzoate] | 1 to 4 µg/mL (≈ 1.22 to 4.88 µM) |  | 1 to 4 µg/mL (≈ 1.22 to 4.88 µM) |  | 0.5 to 2 µg/mL (≈ 0.61 to 2.44 µM) | 0.5 to 2 µg/mL (≈ 0.61 to 2.44 µM) | > 64 µg/mL | > 64 µg/mL |  |  |  | 19.4 mg/kg | 0.6 mg/kg
3 | CN(C)c1cc(NC(=O)CN(C(=O)OCOC(=O)c2ccccc2CCc2ccccc2)C(C)(C)C)c(O)c2c1C[C@H]1C[C@H]3[C@H](N(C)C)C(O)=C(C(N)=O)C(=O)[C@@]3(O)C(O)=C1C2=O [Example 103, ({[(2-{[(5aR,6aS,7S,10aS)-9-(aminocarbonyl)-4,7-bis(dimethylamino)-1,8,10a,11-tetrahydroxy-10,12-dioxo-5,5a,6,6a,7,10,10a,12-octahydrotetracen-2-yl]amino}-2-oxoethyl)(tert-butyl)amino]carbonyl}oxy)methyl 2-(2-phenylethyl)benzoate] |  |  | 8 to 16 µg/mL (≈ 9.22 to 18.4 µM) |  | 8 to 16 µg/mL (≈ 9.22 to 18.4 µM) |  |  | > 64 µg/mL |  |  |  |  | 
4 | CCCCCCCCCCCCOc1ccc(C(=O)OCOC(=O)N(CC(=O)Nc2cc(N(C)C)c3c(c2O)C(=O)C2=C(O)[C@]4(O)C(=O)C(C(N)=O)=C(O)[C@@H](N(C)C)[C@@H]4C[C@@H]2C3)C(C)(C)C)cc1 [Example 104] |  |  | 16 to 64 µg/mL (≈ 16.9 to 67.5 µM) |  | 8 to 16 µg/mL (≈ 8.44 to 16.9 µM) |  |  | > 64 µg/mL |  |  |  |  | 
5 | CN(C)c1cc(NC(=O)CN(C(=O)OCOC(=O)c2c3ccccc3cc3ccccc23)C(C)(C)C)c(O)c2c1C[C@H]1C[C@H]3[C@H](N(C)C)C(O)=C(C(N)=O)C(=O)[C@@]3(O)C(O)=C1C2=O [Example 106, ({[(2-{[(5aR,6aS,7S,10aS)-9-(aminocarbonyl)-4,7-bis(dimethylamino)-1,8,10a,11-tetrahydroxy-10,12-dioxo-5,5a,6,6a,7,10,10a,12-octahydrotetracen-2-yl]amino}-2-oxoethyl)(tert-butyl)amino]carbonyl}oxy)methyl anthracene-9-carboxylate] |  |  | > 64 µg/mL | > 64 µg/mL | > 64 µg/mL |  |  | > 64 µg/mL |  |  |  |  | 
6 | CN(C)c1cc(NC(=O)CN(C(=O)OCOC(=O)c2ccc(C(=O)c3ccccc3)cc2)C(C)(C)C)c(O)c2c1C[C@H]1C[C@H]3[C@H](N(C)C)C(O)=C(C(N)=O)C(=O)[C@@]3(O)C(O)=C1C2=O [Example 107, ({[(2-{[(5aR,6aS,7S,10aS)-9-(aminocarbonyl)-4,7-bis(dimethylamino)-1,8,10a,11-tetrahydroxy-10,12-dioxo-5,5a,6,6a,7,10,10a,12-octahydrotetracen-2-yl]amino}-2-oxoethyl)(tert-butyl)amino]carbonyl}oxy)methyl 4-benzoylbenzoate] |  |  | 2 to 8 µg/mL (≈ 2.3 to 9.22 µM) | 0.5 to 1 µg/mL (≈ 0.576 to 1.15 µM) | > 64 µg/mL |  |  | 0.5 to 1 µg/mL (≈ 0.576 to 1.15 µM) |  |  |  |  | 
7 | CCCN(CC(=O)Nc1cc(N(C)C)c2c(c1O)C(=O)C1=C(O)[C@]3(O)C(=O)C(C(N)=O)=C(O)[C@@H](N(C)C)C3CC1C2)C(=O)OCc1oc(=O)oc1-c1ccc(OC)cc1 (stereo partly drawn) [Example 111, [5-(4-methoxyphenyl)-2-oxo-1,3-dioxol-4-yl]methyl 2-{[(7S,10aS)-9-(aminocarbonyl)-4,7-bis(dimethylamino)-1,8,10a,11-tetrahydroxy-10,12-dioxo-5,5a,6,6a,7,10,10a, 12-octahydrotetracen-2-yl]amino}-2-oxoethyl(propyl)carbamate] |  |  | 0.5 to 8 µg/mL (≈ 0.61 to 9.76 µM) | 1 to 16 µg/mL (≈ 1.22 to 19.5 µM) | 0.25 to 1 µg/mL (≈ 0.305 to 1.22 µM) |  |  | 1 to 4 µg/mL (≈ 1.22 to 4.88 µM) |  |  |  |  | 

The next lines start with results.

Row | MIC [2, 6] | MIC [2, 7] | MIC [2, 8] | MIC [2, 9] | MIC [3, 10] | MIC [3, 11] | MIC [3, 12] | MIC [3, 13] | MIC ([2]; read-out: Range of MIC, Staph. (mouse serum)) | MIC ([2]; read-out: Range of MIC, Staph. (water)) | MIC ([3]; read-out: Range of MIC, E. coli (mouse serum)) | SMILES | ED50 [1, 4] | ED50 [1, 5]
8 | 1 to 4 µg/mL (≈ 1.3 to 5.18 µM) | 2 to 32 µg/mL (≈ 2.59 to 41.5 µM) | 1 to 4 µg/mL (≈ 1.3 to 5.18 µM) | 2 to 32 µg/mL (≈ 2.59 to 41.5 µM) | 0.5 to 2 µg/mL (≈ 0.648 to 2.59 µM) | 0.5 to 2 µg/mL (≈ 0.648 to 2.59 µM) | 32 to 64 µg/mL (≈ 41.5 to 82.9 µM) | 32 to 64 µg/mL (≈ 41.5 to 82.9 µM) |  |  |  | CCCCCCC(=O)OCOC(=O)N(CCCC)CC(=O)Nc1cc(N(C)C)c2c(c1O)C(=O)C1=C(O)[C@]3(O)C(=O)C(C(N)=O)=C(O)[C@@H](N(C)C)[C@@H]3C[C@@H]1C2 [Example 17, ({[(2-{[(5aR,6aS,7S,10aS)-9-(aminocarbonyl)-4,7-bis(dimethylamino)-1,8,10a,11-tetrahydroxy-10,12-dioxo-5,5a,6,6a,7,10,10a,12-octahydrotetracen-2-yl]amino}-2-oxoethyl)(butyl)amino]carbonyl}oxy)methyl heptanoate] | 59.9 mg/kg | 1.07 mg/kg
9 | 0.25 to 2 µg/mL (≈ 0.325 to 2.6 µM) | 1 to 4 µg/mL (≈ 1.3 to 5.2 µM) | 0.25 to 2 µg/mL (≈ 0.325 to 2.6 µM) | 1 to 4 µg/mL (≈ 1.3 to 5.2 µM) | 0.5 to 1 µg/mL (≈ 0.649 to 1.3 µM) | 0.5 to 1 µg/mL (≈ 0.649 to 1.3 µM) | > 64 µg/mL | > 64 µg/mL |  |  |  | CCCCN(CC(=O)Nc1cc(N(C)C)c2c(c1O)C(=O)C1=C(O)[C@]3(O)C(=O)C(C(N)=O)=C(O)[C@@H](N(C)C)[C@@H]3C[C@@H]1C2)C(=O)OCOC(=O)c1ccsc1 [Example 29, ({[(2-{[(5aR,6aS,7S,10aS)-9-(aminocarbonyl)-4,7-bis(dimethylamino)-1,8,10a,11-tetrahydroxy-10,12-dioxo-5,5a,6,6a,7,10,10a,12-octahydrotetracen-2-yl]amino}-2-oxoethyl)(butyl)amino]carbonyl}oxy)methyl thiophene-3-carboxylate] | 13.7 mg/kg | 0.43 mg/kg
10 | 0.25 to 2 µg/mL (≈ 0.332 to 2.65 µM) | 1 to 8 µg/mL (≈ 1.33 to 10.6 µM) | 0.25 to 2 µg/mL (≈ 0.332 to 2.65 µM) | 1 to 8 µg/mL (≈ 1.33 to 10.6 µM) | 0.5 to 1 µg/mL (≈ 0.663 to 1.33 µM) | 0.5 to 1 µg/mL (≈ 0.663 to 1.33 µM) |  |  |  |  |  | CCCCN(CC(=O)Nc1cc(N(C)C)c2c(c1O)C(=O)C1=C(O)[C@]3(O)C(=O)C(C(N)=O)=C(O)[C@@H](N(C)C)[C@@H]3C[C@@H]1C2)C(=O)OCOC(=O)c1ccco1 [Example 30, ({[(2-{[(5aR,6aS,7S,10aS)-9-(aminocarbonyl)-4,7-bis(dimethylamino)-1,8,10a,11-tetrahydroxy-10,12-dioxo-5,5a,6,6a,7,10,10a,12-octahydrotetracen-2-yl]amino}-2-oxoethyl)(butyl)amino]carbonyl}oxy)methyl 2-furate] | 15.1 mg/kg | 0.41 mg/kg
11 |  |  | 0.25 to 2 µg/mL (≈ 0.338 to 2.7 µM) | 0.5 to 4 µg/mL (≈ 0.676 to 5.41 µM) | 0.5 to 1 µg/mL (≈ 0.676 to 1.35 µM) |  |  |  | 0.25 to 2 µg/mL (≈ 0.338 to 2.7 µM) | 0.5 to 4 µg/mL (≈ 0.676 to 5.41 µM) | 0.5 to 1 µg/mL (≈ 0.676 to 1.35 µM) | CCCN(CC(=O)Nc1cc(N(C)C)c2c(c1O)C(=O)C1=C(O)[C@]3(O)C(=O)C(C(N)=O)=C(O)[C@@H](N(C)C)[C@@H]3C[C@@H]1C2)C(=O)OCOC(=O)c1ccco1 [Example 31, ({[(2-{[(5aR,6aS,7S,10aS)-9-(aminocarbonyl)-4,7-bis(dimethylamino)-1,8,10a,11-tetrahydroxy-10,12-dioxo-5,5a,6,6a,7,10,10a,12-octahydrotetracen-2-yl]amino}-2-oxoethyl)(propyl)amino]carbonyl}oxy)methyl 2-furate] | 11.1 mg/kg | 0.31 mg/kg
12 |  |  | 0.25 to 2 µg/mL | 0.5 to 4 µg/mL | 0.5 to 1 µg/mL |  |  | 1 to 4 µg/mL |  |  |  | CCCCN(CC(=O)Nc1cc(N(C)C)c2c(c1O)C(=O)C1=C(O)[C@]3(O)C(=O)C(C(N)=O)=C(O)[C@@H](N(C)C)C3CC1C2)C(=O)OC(C)OC(C)=O (stereo partly drawn) [Example 32, 1-({[(2-{[(7S,10aS)-9-(aminocarbonyl)-4,7-bis(dimethylamino)-1,8,10a,11-tetrahydroxy-10,12-dioxo-5,5a,6,6a,7,10,10a,12-octahydrotetracen-2-yl]amino}-2-oxoethyl)(butyl)amino]carbonyl}oxy)ethyl acetate] | 7.7 mg/kg | 0.56 mg/kg
13 |  |  | 0.5 to 2 µg/mL (≈ 0.547 to 2.19 µM) | 4 to 16 µg/mL (≈ 4.38 to 17.5 µM) | 1 µg/mL (≈ 1.09 µM) |  |  | 16 to 32 µg/mL (≈ 17.5 to 35 µM) |  |  |  | CN(C)c1cc(NC(=O)CN(C(=O)OCOC(=O)Cc2cc(C(F)(F)F)cc(C(F)(F)F)c2)C(C)(C)C)c(O)c2c1C[C@H]1C[C@H]3[C@H](N(C)C)C(O)=C(C(N)=O)C(=O)[C@@]3(O)C(O)=C1C2=O [Example 101, ({[(2-{[(5aR,6aS,7S,10aS)-9-(aminocarbonyl)-4,7-bis(dimethylamino)-1,8,10a,11-tetrahydroxy-10,12-dioxo-5,5a,6,6a,7,10,10a,12-octahydrotetracen-2-yl]amino}-2-oxoethyl)(tert-butyl)amino]carbonyl}oxy)methyl [3,5-bis(trifluoromethyl)phenyl]acetate] |  | 
14 |  |  | 1 to 2 µg/mL (≈ 1.22 to 2.44 µM) |  | 2 µg/mL (≈ 2.44 µM) |  |  | > 64 µg/mL |  |  |  | CC(=O)Nc1ccc(C(=O)OCOC(=O)N(CC(=O)Nc2cc(N(C)C)c3c(c2O)C(=O)C2=C(O)[C@]4(O)C(=O)C(C(N)=O)=C(O)[C@@H](N(C)C)[C@@H]4C[C@@H]2C3)C(C)(C)C)cc1 [Example 105] |  | 
